One data set concerns Candida albicans. The data set can be described thus: Antifungal activity against Candida albicans after 16 hrs by microtiter broth dilution method. The format is functional.
The next data set has as its system Escherichia coli. The data set can be described thus: Antibacterial activity against Escherichia coli ATCC 9637 after 16 hrs by microtiter broth dilution method. As to conditions: W. The format is functional. In general terms: Broth dilution looks for growth in wells or tubes with falling amounts of substance.
Another data set concerns Cryptococcus neoformans. The data set can be described thus: Antifungal activity against Cryptococcus neoformans after 16 hrs by microtiter broth dilution method. The class given is functional.
Another data set relates to Klebsiella pneumoniae. Put plainly: Antibacterial activity against Klebsiella pneumoniae ATCC 27736 after 16 hrs by microtiter broth dilution method. The format is functional.
For data set [1], the system named is Staphylococcus aureus. Put plainly: Antibacterial activity against […] Staphylococcus aureus ATCC 29213 after 16 hrs by microtiter broth dilution method. The format is functional.
Data set [2] can be described thus: Hemolytic activity in human RBC at 100 ug/ml after 1 hr. To be noted: erythrocyte.
In another data set the test system is Pseudomonas aeruginosa. Put plainly: Antibacterial activity against Pseudomonas aeruginosa ATCC BAA-427 after 16 hrs by microtiter broth dilution method. The class given is functional.
The next data set has as its system Candida parapsilosis. The data set can be described thus: Antifungal activity against Candida parapsilosis ATCC 22019 after 16 hrs by microtiter broth dilution method. The class given is functional.
A further data set concerns Sporothrix schenckii. Put plainly: Antifungal activity against Sporothrix schenckii after 16 hrs by microtiter broth dilution method. The class given is functional.
Data set [3] deals with Staphylococcus aureus. The data set can be described thus: Antibacterial activity against Staphylococcus aureus ATCC 25923 after 16 hrs by microtiter broth dilution method. The format is functional.
For data set [4], the system named is Staphylococcus aureus. Put plainly: Antibacterial activity against methicillin/gentamicin-resistant Staphylococcus aureus ATCC 33592 after 16 hrs by microtiter broth dilution method. The class given is functional.
The test system of another data set is Aspergillus fumigatus. Put plainly: Antifungal activity against Aspergillus fumigatus after 16 hrs by microtiter broth dilution method. The class given is functional.
Data set [5] has as its system Staphylococcus aureus. Put plainly: Antibacterial activity against methicillin-resistant Staphylococcus aureus ATCC 700699 after 16 hrs by microtiter broth dilution method. The class given is functional.
Data set [6] relates to Trichophyton mentagrophytes. Put plainly: Antifungal activity against Trichophyton mentagrophytes after 16 hrs by microtiter broth dilution method. The class given is functional.
Where [7] appears, read: Lodderomyces parapsilosis, ATCC 22019, 16 h.

Values after ≈ are worked out from the molar mass of the structure shown.

One may read the MIC as the lowest concentration that inhibits growth of the organism. A lower MIC goes with greater potency. Turning to `CCOC(=O)c1csc(/N=C/c2cc(/C=C/C(=O)c3ccco3)cc(C(C)(C)C)c2O)n1`, the minimum inhibitory concentration (MIC) in the data set on Candida albicans was greater than 110 µM; in the data set on Escherichia coli, greater than 110 µM; against Cryptococcus neoformans, greater than 110 µM; in the data set on Klebsiella pneumoniae (ATCC 27736, 16 h), greater than 110 µM; in the data set with Staphylococcus aureus [1] (ATCC 29213, 16 h), 13.8 µM (≈ 6.24 µg/mL); against Pseudomonas aeruginosa (ATCC BAA-427, 16 h), greater than 110 µM. Also, the MIC was greater than 110 µM against Candida parapsilosis (setting [7]); greater than 110 µM with Sporothrix schenckii; 13.8 µM (≈ 6.24 µg/mL) against Staphylococcus aureus [3] (ATCC 25923, 16 h); 13.8 µM (≈ 6.24 µg/mL) in the data set with Staphylococcus aureus [4] (ATCC 33592, 16 h); greater than 110 µM in the data set with Aspergillus fumigatus; 13.8 µM (≈ 6.24 µg/mL) against Staphylococcus aureus [5] (ATCC 700699, 16 h). Further, in data set [6], the MIC is greater than 110 µM. The Activity entry in [2] was “Non-toxic”.
Regarding `CCOC(=O)c1csc(/N=C/c2cc(/C=C/C(=O)c3ccc(C)cc3)cc(C(C)C)c2O)n1`, the MIC in the data set on Candida albicans is greater than 108 µM; with Escherichia coli, greater than 108 µM; against Cryptococcus neoformans, greater than 108 µM; in the data set with Klebsiella pneumoniae (ATCC 27736, 16 h), greater than 108 µM; against Staphylococcus aureus [1] (ATCC 29213, 16 h), 13.5 µM (≈ 6.24 µg/mL); in the data set on Pseudomonas aeruginosa (ATCC BAA-427, 16 h), greater than 108 µM. Moreover, the MIC against Candida parapsilosis (setting [7]) is greater than 108 µM; against Sporothrix schenckii it was greater than 108 µM; in the data set with Staphylococcus aureus [3] (ATCC 25923, 16 h) it was 27 µM (≈ 12.5 µg/mL); in the data set on Staphylococcus aureus [4] (ATCC 33592, 16 h), 13.5 µM (≈ 6.24 µg/mL); in the data set on Aspergillus fumigatus it was greater than 108 µM; with Staphylococcus aureus [5] (ATCC 700699, 16 h) it was 13.5 µM (≈ 6.24 µg/mL). In [6], this molecule returned an MIC greater than 108 µM. The Activity entry in [2] is listed as “Non-toxic”.
As for `OC(Cn1cncn1)(Cn1cncn1)c1ccc(F)cc1F` [FLUCONAZOLE], the minimal inhibitory concentration (MIC) with Candida albicans is 0.7 µM (≈ 0.214 µg/mL); with Escherichia coli, greater than 34.5 µM; in the data set on Cryptococcus neoformans, 1.4 µM (≈ 0.429 µg/mL); with Klebsiella pneumoniae (ATCC 27736, 16 h), greater than 34.5 µM; against Staphylococcus aureus [1] (ATCC 29213, 16 h), greater than 34.5 µM; against Pseudomonas aeruginosa (ATCC BAA-427, 16 h), greater than 34.5 µM. The MIC against Candida parapsilosis (setting [7]) is 1.4 µM (≈ 0.429 µg/mL); against Sporothrix schenckii it was 1.4 µM (≈ 0.429 µg/mL); with Staphylococcus aureus [3] (ATCC 25923, 16 h), greater than 34.5 µM; against Staphylococcus aureus [4] (ATCC 33592, 16 h), greater than 34.5 µM; with Aspergillus fumigatus, 22.1 µM (≈ 6.77 µg/mL); in the data set on Staphylococcus aureus [5] (ATCC 700699, 16 h), greater than 34.5 µM. This molecule came in with an MIC in data set [6] of 22.1 µM (≈ 6.77 µg/mL).
In the case of GENTAMICIN, the MIC was greater than 105 µM with Candida albicans; 6.5 µM in the data set with Escherichia coli; 105 µM against Cryptococcus neoformans; 3.3 µM with Klebsiella pneumoniae; 3.3 µM against Staphylococcus aureus [1]; 1.6 µM in the data set on Pseudomonas aeruginosa. Besides, the MIC is 105 µM against Candida parapsilosis; 105 µM in the data set with Sporothrix schenckii; 1.6 µM against Staphylococcus aureus [3]; 105 µM with Staphylococcus aureus [4]; 105 µM against Aspergillus fumigatus; 105 µM with Staphylococcus aureus [5]. Besides, the MIC in data set [6] was found to be 105 µM.
As to `CCn1cc(C(=O)O)c(=O)c2cc(F)c(N3CCNCC3)cc21` [NORFLOXACIN], the MIC against Candida albicans is greater than 33.6 µM; in the data set on Cryptococcus neoformans, 33.6 µM (≈ 10.7 µg/mL); in the data set on Klebsiella pneumoniae (ATCC 27736, 16 h) it was 0.1 µM (≈ 0.0319 µg/mL); in the data set on Staphylococcus aureus [1] (ATCC 29213, 16 h), 1 µM (≈ 0.319 µg/mL); with Pseudomonas aeruginosa (ATCC BAA-427, 16 h), 1 µM (≈ 0.319 µg/mL); against Candida parapsilosis (setting [7]), 33.6 µM (≈ 10.7 µg/mL). Moreover, the MIC is 33.6 µM (≈ 10.7 µg/mL) against Sporothrix schenckii; 0.5 µM (≈ 0.16 µg/mL) with Staphylococcus aureus [3] (ATCC 25923, 16 h); 0.5 µM (≈ 0.16 µg/mL) against Staphylococcus aureus [4] (ATCC 33592, 16 h); 33.6 µM (≈ 10.7 µg/mL) against Aspergillus fumigatus; 33.6 µM (≈ 10.7 µg/mL) in the data set on Staphylococcus aureus [5] (ATCC 700699, 16 h); 33.6 µM (≈ 10.7 µg/mL) in data set [6].
Regarding `C[C@@H]1[C@H](O)[C@@H](C)/C=C/C=C/C=C/C=C/C=C/C=C/C=C/[C@H](O[C@@H]2O[C@H](C)[C@@H](O)[C@H](N)[C@@H]2O)C[C@@H]2O[C@](O)(C[C@@H](O)C[C@@H](O)[C@H](O)CC[C@@H](O)C[C@@H](O)CC(=O)O[C@H]1C)C[C@H](O)[C@H]2C(=O)O` [AMPHOTERICIN B], the MIC with Escherichia coli was greater than 54.1 µM; against Cryptococcus neoformans, 0.1 µM (≈ 0.0924 µg/mL); against Klebsiella pneumoniae (ATCC 27736, 16 h) it was greater than 54.1 µM; against Staphylococcus aureus [1] (ATCC 29213, 16 h), greater than 54.1 µM; in the data set on Pseudomonas aeruginosa (ATCC BAA-427, 16 h), greater than 54.1 µM; in the data set on Sporothrix schenckii, 0.3 µM (≈ 0.277 µg/mL). Further, the MIC against Staphylococcus aureus [3] (ATCC 25923, 16 h) is greater than 54.1 µM; with Staphylococcus aureus [4] (ATCC 33592, 16 h), greater than 54.1 µM; against Aspergillus fumigatus, 0.5 µM (≈ 0.462 µg/mL); in the data set with Staphylococcus aureus [5] (ATCC 700699, 16 h) it was greater than 54.1 µM; in [6] it was 0.3 µM (≈ 0.277 µg/mL).
With `CN[C@H](CC(C)C)C(=O)N[C@H]1C(=O)N[C@@H](CC(N)=O)C(=O)N[C@H]2C(=O)N[C@H]3C(=O)N[C@H](C(=O)N[C@H](C(=O)O)c4cc(O)cc(O)c4-c4cc3ccc4O)[C@H](O)c3ccc(c(Cl)c3)Oc3cc2cc(c3O[C@@H]2O[C@H](CO)[C@@H](O)[C@H](O)[C@H]2O[C@H]2C[C@](C)(N)[C@H](O)[C@H](C)O2)Oc2ccc(cc2Cl)[C@H]1O` [VANCOMYCIN], the MIC against Candida albicans is greater than 157 µM; against Escherichia coli, greater than 157 µM; against Cryptococcus neoformans, 157 µM (≈ 227 µg/mL); in the data set with Klebsiella pneumoniae (ATCC 27736, 16 h), greater than 157 µM; in the data set on Staphylococcus aureus [1] (ATCC 29213, 16 h), 1.2 µM (≈ 1.74 µg/mL); against Pseudomonas aeruginosa (ATCC BAA-427, 16 h), greater than 157 µM. Also, the MIC amounted to 157 µM (≈ 227 µg/mL) in the data set with Candida parapsilosis (setting [7]); 157 µM (≈ 227 µg/mL) with Sporothrix schenckii; 2.4 µM (≈ 3.48 µg/mL) in the data set on Staphylococcus aureus [3] (ATCC 25923, 16 h); 2.4 µM (≈ 3.48 µg/mL) against Staphylococcus aureus [4] (ATCC 33592, 16 h); 157 µM (≈ 227 µg/mL) against Aspergillus fumigatus; 9.8 µM (≈ 14.2 µg/mL) against Staphylococcus aureus [5] (ATCC 700699, 16 h). In [6], this molecule returned an MIC of 157 µM (≈ 227 µg/mL).
